Target: T1, human CTPS1 (Homo sapiens, UniProt P17812)
T1 construct: purchased Proteros biostructures GmbH
T1 sequence (P17812 1-591): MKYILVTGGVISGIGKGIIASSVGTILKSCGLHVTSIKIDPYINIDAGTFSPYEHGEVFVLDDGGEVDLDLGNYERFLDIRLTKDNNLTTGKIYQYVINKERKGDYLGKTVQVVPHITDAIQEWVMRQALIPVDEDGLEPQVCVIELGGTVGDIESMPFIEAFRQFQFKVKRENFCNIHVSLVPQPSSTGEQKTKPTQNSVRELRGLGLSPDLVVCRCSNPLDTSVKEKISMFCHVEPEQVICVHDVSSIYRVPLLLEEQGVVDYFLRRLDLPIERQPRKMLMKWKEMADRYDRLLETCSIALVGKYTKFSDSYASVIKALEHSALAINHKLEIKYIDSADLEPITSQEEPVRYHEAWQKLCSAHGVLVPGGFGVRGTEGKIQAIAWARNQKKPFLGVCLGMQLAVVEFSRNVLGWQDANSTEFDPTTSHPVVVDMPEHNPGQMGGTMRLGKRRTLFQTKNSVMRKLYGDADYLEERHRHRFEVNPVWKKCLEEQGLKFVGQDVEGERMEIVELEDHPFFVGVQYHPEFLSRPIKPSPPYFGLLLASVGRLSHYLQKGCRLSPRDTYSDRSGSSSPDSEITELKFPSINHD
Assay: Human CTPS1 enzyme inhibition (ADP-Glo Max assay)
Type: biochemical
Settings: Table 18, additional potency data, 25° C., read-out: CTPS1 (Human CTPS1 Enzyme Inhibition data grouped by potency range)
Outline: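 ADP-Glo Max luminescence detection of ATP-to-ADP conversion by the enzyme, in 50 mM Tris, 10 mM MgCl2, 0.01% Tween-20, pH 8.0, with 2 mM L-cysteine added fresh. Enzyme preincubated with compound 10 minutes at 25° C. Percentage inhibition calculated per compound concentration.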

| IC50 [nM] | SMILES |
| --- | --- |
| 100 to 1000 | Cc1cc(NC(=O)C(C)(C)c2csc(NS(=O)(=O)C3CC3)n2)c(F)cc1-c1cncc(Cl)c1 [T352, N-(4-(5-chloropyridin-3-yl)-2-fluoro-5-methylphenyl)-2-(2-(cyclopropanesulfonamido)thiazol-4-yl)-2-methylpropanamide] |
| 100 to 1000 | COC(C)(C)c1cncc(-c2ccc(NC(=O)C(C)(C)c3csc(NS(=O)(=O)C4CC4)n3)c(F)c2)n1 [T353, 2-(2-(cyclopropanesulfonamido)thiazol-4-yl)-N-(2-fluoro-4-(6-(2-methoxypropan-2-yl)pyrazin-2-yl)phenyl)-2-methylpropanamide] |
| 100 to 1000 | Cc1sc(NS(=O)(=O)C2CC2)nc1C(C)(C)C(=O)Nc1ccc(-c2cncc(C(F)(F)F)n2)cc1F [T354, 2-(2-(cyclopropanesulfonamido)-5-methylthiazol-4-yl)-N-(2-fluoro-4-(6-(trifluoromethyl)pyrazin-2-yl)phenyl)-2-methylpropanamide] |
| 1000 to 10000 | CC(C)(C(=O)Nc1ccc(-c2cncc(C#N)n2)cc1F)c1csc(NS(=O)(=O)C2CC2)n1 [T355, N-(4-(6-cyanopyrazin-2-yl)-2-fluorophenyl)-2-(2-(cyclopropanesulfonamido)thiazol-4-yl)-2-methylpropanamide] |
| < 100 | CCc1cncc(-c2ccc(NC(=O)C(C)(C)c3csc(NS(=O)(=O)C4CC4)n3)c(F)c2)n1 [T356, 2-(2-(cyclopropanesulfonamido)thiazol-4-yl)-N-(4-(6-ethylpyrazin-2-yl)-2-fluorophenyl)-2-methylpropanamide] |
| < 100 | CC(C)Oc1cncc(-c2ccc(NC(=O)C(C)(C)c3csc(NS(=O)(=O)C4CC4)n3)c(F)c2)n1 [T357, 2-(2-(cyclopropanesulfonamido)thiazol-4-yl)-N-(2-fluoro-4-(6-isopropoxypyrazin-2-yl)phenyl)-2-methylpropanamide] |
| < 100 | CCOc1cncc(-c2ccc(NC(=O)C(C)(C)c3nc(NS(=O)(=O)C4CC4)sc3C)c(F)c2)n1 [T358, 2-(2-(cyclopropanesulfonamido)-5-methylthiazol-4-yl)-N-(4-(6-ethoxypyrazin-2-yl)-2-fluorophenyl)-2-methylpropanamide] |
| < 100 | CC(C)c1cc(-c2cncc(Cl)c2)ccc1NC(=O)C(C)(C)c1csc(NS(=O)(=O)C2CC2)n1 [T359, N-(4-(5-chloropyridin-3-yl)-2-isopropylphenyl)-2-(2-(cyclopropanesulfonamido)thiazol-4-yl)-2-methylpropanamide] |
| 100 to 1000 | CC(C)c1cc(-c2cncc(C#N)c2)ccc1NC(=O)C(C)(C)c1csc(NS(=O)(=O)C2CC2)n1 [T360, N-(4-(5-cyanopyridin-3-yl)-2-isopropylphenyl)-2-(2-(cyclopropanesulfonamido)thiazol-4-yl)-2-methylpropanamide] |
| 100 to 1000 | CC(C)c1cc(-c2cncc(C(F)(F)F)n2)ccc1NC(=O)C(C)(C)c1csc(NS(=O)(=O)C2CC2)n1 [T361, 2-(2-(cyclopropanesulfonamido)thiazol-4-yl)-N-(2-isopropyl-4-(6-(trifluoromethyl)pyrazin-2-yl)phenyl)-2-methylpropanamide] |
| < 100 | CCOc1cncc(-c2ccc(NC(=O)C(C)(C)c3csc(NS(=O)(=O)C4CC4)n3)c(C(C)C)c2)n1 [T362, 2-(2-(cyclopropanesulfonamido)thiazol-4-yl)-N-(4-(6-ethoxypyrazin-2-yl)-2-isopropylphenyl)-2-methylpropanamide] |
| < 100 | Cc1c(NC(=O)C(C)(C)c2csc(NS(=O)(=O)C3CC3)n2)ccc(-c2cncc(Cl)c2)c1F [T363, N-(4-(5-chloropyridin-3-yl)-3-fluoro-2-methylphenyl)-2-(2-(cyclopropanesulfonamido)thiazol-4-yl)-2-methylpropanamide] |
| 100 to 1000 | Cc1cc(-c2cncc(Cl)c2)c(F)cc1NC(=O)C(C)(C)c1csc(NS(=O)(=O)C2CC2)n1 [T364, N-(4-(5-chloropyridin-3-yl)-5-fluoro-2-methylphenyl)-2-(2-(cyclopropanesulfonamido)thiazol-4-yl)-2-methylpropanamide] |
| < 100 | Cc1c(NC(=O)C(C)(C)c2csc(NS(=O)(=O)C3CC3)n2)ccc(-c2cncc(Cl)c2)c1C [T365, N-(4-(5-chloropyridin-3-yl)-2,3-dimethylphenyl)-2-(2-(cyclopropanesulfonamido)thiazol-4-yl)-2-methylpropanamide] |
| 100 to 1000 | Cc1cc(-c2cncc(Cl)c2)c(C)cc1NC(=O)C(C)(C)c1csc(NS(=O)(=O)C2CC2)n1 [T366, N-(4-(5-chloropyridin-3-yl)-2,5-dimethylphenyl)-2-(2-(cyclopropanesulfonamido)thiazol-4-yl)-2-methylpropanamide] |
| < 100 | Cc1c(NC(=O)C(C)(C)c2csc(NS(=O)(=O)C3CC3)n2)ccc(-c2cncc(C#N)c2)c1F [T367, N-(4-(5-cyanopyridin-3-yl)-3-fluoro-2-methylphenyl)-2-(2-(cyclopropanesulfonamido)thiazol-4-yl)-2-methylpropanamide] |
| < 100 | Cc1cc(-c2cncc(C(F)(F)F)n2)ccc1NC(=O)C(C)(C)c1csc(NS(=O)(=O)C2CC2)n1 [T368, 2-(2-(cyclopropanesulfonamido)thiazol-4-yl)-2-methyl-N-(2-methyl-4-(6-(trifluoromethyl)pyrazin-2-yl)phenyl)propanamide] |
| 100 to 1000 | COc1cc(-c2cncc(Cl)c2)c(F)cc1NC(=O)C(C)(C)c1csc(NS(=O)(=O)C2CC2)n1 [T369, N-(4-(5-chloropyridin-3-yl)-5-fluoro-2-methoxyphenyl)-2-(2-(cyclopropanesulfonamido)thiazol-4-yl)-2-methylpropanamide] |
| < 100 | CCOc1cncc(-c2ccc(NC(=O)C(C)(C)c3csc(NS(=O)(=O)C4CC4)n3)cc2C)n1 [T371, 2-(2-(cyclopropanesulfonamido)thiazol-4-yl)-N-(4-(6-ethoxypyrazin-2-yl)-3-methylphenyl)-2-methylpropanamide] |
| 100 to 1000 | CCOc1cc(NC(=O)C(C)(C)c2csc(NS(=O)(=O)C3CC3)n2)ccc1-c1cncc(Cl)c1 [T372, N-(4-(5-chloropyridin-3-yl)-3-ethoxyphenyl)-2-(2-(cyclopropanesulfonamido)thiazol-4-yl)-2-methylpropanamide] |
| < 100 | O=C(Nc1ccc(-c2cncc(Cl)c2)cc1)C1(c2csc(NS(=O)(=O)C3CC3)n2)CC1 [T373, N-(4-(5-chloropyridin-3-yl)phenyl)-1-(2-(cyclopropanesulfonamido)thiazol-4-yl)cyclopropane-1-carboxamide] |
| 1000 to 10000 | Cc1sc(NS(=O)(=O)C2CC2)nc1C(C)(C)C(=O)Nc1ccc(-c2cncc(C#N)c2)cc1 [T374, N-(4-(5-cyanopyridin-3-yl)phenyl)-2-(2-(cyclopropanesulfonamido)-5-methylthiazol-4-yl)-2-methylpropanamide] |
| 100 to 1000 | COC(C)(C)c1cncc(-c2ccc(NC(=O)C(C)(C)c3csc(NS(=O)(=O)C4CC4)n3)cc2)n1 [T375, 2-(2-(cyclopropanesulfonamido)thiazol-4-yl)-N-(4-(6-(2-methoxypropan-2-yl)pyrazin-2-yl)phenyl)-2-methylpropanamide] |
| 100 to 1000 | CCOc1cncc(-c2ccc(NC(=O)C(C)(C)c3nc(NS(=O)(=O)C4CC4)sc3Cl)cc2)n1 [T376, 2-(5-chloro-2-(cyclopropanesulfonamido)thiazol-4-yl)-N-(4-(6-ethoxypyrazin-2-yl)phenyl)-2-methylpropanamide] |
